Activity calls are given as the source filed them. No cut-off for these calls is given here. Peptide text beside a SMILES is read from it.
Legend:
[1] = (§1) Inhibition of rat alpha6/alpha3 D152A mutant beta4 nAChR expressed in Stage V-VI Xenopus laevis Oocytes assessed as inhibition of acetylcholine-induced current in presence of acetylcholine by electrophysiological recording; type: cell-based; conditions: Oocyte
[2] = biological target: Nicotinic acetylcholine receptor alpha6/alpha3/beta4 (Rattus norvegicus) (UniProt P04757+P12392+P43143); assay: Inhibition of rat alpha6/alpha3beta4 nAChR expressed in Stage V-VI Xenopus laevis Oocytes assessed as inhibition of acetylcholine-induced current at 10 uM in presence of acetylcholine by electrophysiological recording; type: cell-based; conditions: Oocyte
[3] = biological target: T1, Nicotinic acetylcholine receptor alpha6/alpha3/beta2/beta3 (Rattus norvegicus) (UniProt P04757+P12390+P12391+P43143); assay: Inhibition of rat alpha6/alpha3beta2beta3 nAChR expressed in Stage V-VI Xenopus laevis Oocytes assessed as inhibition of acetylcholine-induced current at 10 uM in presence of acetylcholine by electrophysiological recording; type: cell-based; conditions: Oocyte
[4] = biological target: T2, Neuronal acetylcholine receptor; alpha3/beta4 (Rattus norvegicus) (UniProt P04757+P12392); assay: Inhibition of rat alpha3beta4 nAChR expressed in Stage V-VI Xenopus laevis Oocytes assessed as inhibition of acetylcholine-induced current at 10 uM in presence of acetylcholine by electrophysiological recording; type: cell-based; conditions: Oocyte
[5] = biological target: Neuronal acetylcholine receptor; alpha3/beta2 (Rattus norvegicus, UniProt P04757+P12390); assay: Inhibition of rat alpha3/beta2 nAChR expressed in Stage V-VI Xenopus laevis Oocytes assessed as inhibition of acetylcholine-induced current in presence of acetylcholine by electrophysiological recording; type: cell-based, Oocyte
[6] = biological target: Neuronal acetylcholine receptor; alpha3/beta4 (Rattus norvegicus, UniProt P04757+P12392); assay: Inhibition of rat alpha3/beta4 nAChR expressed in Stage V-VI Xenopus laevis Oocytes assessed as inhibition of acetylcholine-induced current in presence of acetylcholine by electrophysiological recording; type: cell-based, Oocyte
[7] = biological target: Neuronal acetylcholine receptor; alpha4/beta2 (Rattus norvegicus, UniProt P09483+P12390); assay: Inhibition of rat alpha4/beta2 nAChR expressed in Stage V-VI Xenopus laevis Oocytes assessed as inhibition of acetylcholine-induced current in presence of acetylcholine by electrophysiological recording; type: cell-based, Oocyte
Neuronal acetylcholine receptor; alpha4/beta2, sequence (P09483 whole entry): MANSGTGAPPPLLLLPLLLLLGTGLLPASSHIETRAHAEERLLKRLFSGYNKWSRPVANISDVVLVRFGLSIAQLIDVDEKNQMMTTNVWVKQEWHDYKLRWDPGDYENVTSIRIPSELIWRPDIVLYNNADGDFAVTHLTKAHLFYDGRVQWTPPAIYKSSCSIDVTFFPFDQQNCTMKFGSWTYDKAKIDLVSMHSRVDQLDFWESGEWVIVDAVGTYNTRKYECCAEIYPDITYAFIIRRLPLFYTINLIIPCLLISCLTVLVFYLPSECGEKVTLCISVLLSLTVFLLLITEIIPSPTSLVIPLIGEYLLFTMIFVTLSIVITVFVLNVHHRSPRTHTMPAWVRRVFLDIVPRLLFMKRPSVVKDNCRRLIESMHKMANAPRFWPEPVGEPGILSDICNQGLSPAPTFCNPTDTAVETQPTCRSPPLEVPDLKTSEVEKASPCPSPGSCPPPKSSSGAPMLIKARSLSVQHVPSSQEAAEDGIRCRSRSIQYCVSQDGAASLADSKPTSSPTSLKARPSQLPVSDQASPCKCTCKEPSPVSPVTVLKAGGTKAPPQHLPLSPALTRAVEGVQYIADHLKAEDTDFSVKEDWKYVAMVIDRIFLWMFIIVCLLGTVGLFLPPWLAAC
Neuronal acetylcholine receptor; alpha4/beta2, sequence (P12390 whole entry): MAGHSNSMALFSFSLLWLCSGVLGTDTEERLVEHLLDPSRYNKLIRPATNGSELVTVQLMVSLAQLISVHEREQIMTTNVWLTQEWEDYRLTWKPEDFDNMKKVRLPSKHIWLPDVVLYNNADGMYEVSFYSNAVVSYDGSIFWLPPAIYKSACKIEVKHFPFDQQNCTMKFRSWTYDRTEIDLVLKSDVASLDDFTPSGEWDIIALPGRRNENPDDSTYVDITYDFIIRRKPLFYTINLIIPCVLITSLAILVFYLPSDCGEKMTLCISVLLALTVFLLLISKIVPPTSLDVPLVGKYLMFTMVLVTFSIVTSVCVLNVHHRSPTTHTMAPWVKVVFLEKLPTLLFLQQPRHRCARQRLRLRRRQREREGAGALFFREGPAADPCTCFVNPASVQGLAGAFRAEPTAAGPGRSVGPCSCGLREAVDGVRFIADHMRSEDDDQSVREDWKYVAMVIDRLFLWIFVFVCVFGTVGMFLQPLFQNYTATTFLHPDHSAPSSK

[8] = biological target: Neuronal acetylcholine receptor; alpha4/beta4 (Rattus norvegicus, UniProt P09483+P12392); assay: Inhibition of rat alpha4/beta4 nAChR expressed in Stage V-VI Xenopus laevis Oocytes assessed as inhibition of acetylcholine-induced current in presence of acetylcholine by electrophysiological recording; type: cell-based, Oocyte
[9] = biological target: Neuronal acetylcholine receptor subunit alpha-7 (Rattus norvegicus, UniProt Q05941); assay: Inhibition of rat alpha7 nAChR expressed in Stage V-VI Xenopus laevis Oocytes assessed as inhibition of acetylcholine-induced current in presence of acetylcholine by electrophysiological recording; type: cell-based, Oocyte
Neuronal acetylcholine receptor subunit alpha-7, sequence (Q05941 whole entry): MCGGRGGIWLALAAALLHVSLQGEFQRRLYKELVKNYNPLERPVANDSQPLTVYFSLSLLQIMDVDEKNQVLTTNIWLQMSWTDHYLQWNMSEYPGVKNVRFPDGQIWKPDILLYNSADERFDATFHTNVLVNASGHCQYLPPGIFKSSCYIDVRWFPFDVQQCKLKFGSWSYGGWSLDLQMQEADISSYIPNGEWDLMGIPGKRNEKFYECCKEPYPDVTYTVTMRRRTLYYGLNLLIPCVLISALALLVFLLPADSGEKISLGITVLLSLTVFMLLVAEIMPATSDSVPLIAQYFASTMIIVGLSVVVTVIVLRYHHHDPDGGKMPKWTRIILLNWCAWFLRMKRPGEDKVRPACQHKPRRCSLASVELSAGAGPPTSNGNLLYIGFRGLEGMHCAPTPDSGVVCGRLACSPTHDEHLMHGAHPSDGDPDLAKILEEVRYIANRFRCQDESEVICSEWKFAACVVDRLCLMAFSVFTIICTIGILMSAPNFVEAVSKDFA

[10] = biological target: Nicotinic acetylcholine receptor alpha6/alpha3/beta4 (Rattus norvegicus, UniProt P04757+P12392+P43143); assay: Inhibition of rat alpha6/alpha3beta4 nAChR expressed in Stage V-VI Xenopus laevis Oocytes assessed as inhibition of acetylcholine-induced current in presence of acetylcholine by electrophysiological recording; type: cell-based, Oocyte
[11] = biological target: Nicotinic acetylcholine receptor alpha1/beta1/epsilon/delta (Mus musculus, UniProt P02716+P04756+P09690+P20782); assay: Inhibition of mouse alpha1/beta1deltaepsilon nAChR expressed in Stage V-VI Xenopus laevis Oocytes assessed as inhibition of acetylcholine-induced current in presence of acetylcholine by electrophysiological recording; type: cell-based, Oocyte
Nicotinic acetylcholine receptor alpha1/beta1/epsilon/delta, sequence (P04756 whole entry): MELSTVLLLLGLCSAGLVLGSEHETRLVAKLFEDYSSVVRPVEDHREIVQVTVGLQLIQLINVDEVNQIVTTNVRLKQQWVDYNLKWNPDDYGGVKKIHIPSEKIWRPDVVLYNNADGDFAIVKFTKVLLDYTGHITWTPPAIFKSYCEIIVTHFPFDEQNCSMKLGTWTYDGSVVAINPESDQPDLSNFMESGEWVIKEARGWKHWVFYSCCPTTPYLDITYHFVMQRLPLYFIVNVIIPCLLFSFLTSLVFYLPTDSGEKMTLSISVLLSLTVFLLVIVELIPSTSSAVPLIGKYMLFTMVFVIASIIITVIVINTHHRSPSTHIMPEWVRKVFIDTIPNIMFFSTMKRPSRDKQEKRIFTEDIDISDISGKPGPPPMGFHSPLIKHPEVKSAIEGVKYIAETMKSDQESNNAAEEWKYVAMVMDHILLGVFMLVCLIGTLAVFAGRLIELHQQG
Nicotinic acetylcholine receptor alpha1/beta1/epsilon/delta, sequence (P09690 whole entry): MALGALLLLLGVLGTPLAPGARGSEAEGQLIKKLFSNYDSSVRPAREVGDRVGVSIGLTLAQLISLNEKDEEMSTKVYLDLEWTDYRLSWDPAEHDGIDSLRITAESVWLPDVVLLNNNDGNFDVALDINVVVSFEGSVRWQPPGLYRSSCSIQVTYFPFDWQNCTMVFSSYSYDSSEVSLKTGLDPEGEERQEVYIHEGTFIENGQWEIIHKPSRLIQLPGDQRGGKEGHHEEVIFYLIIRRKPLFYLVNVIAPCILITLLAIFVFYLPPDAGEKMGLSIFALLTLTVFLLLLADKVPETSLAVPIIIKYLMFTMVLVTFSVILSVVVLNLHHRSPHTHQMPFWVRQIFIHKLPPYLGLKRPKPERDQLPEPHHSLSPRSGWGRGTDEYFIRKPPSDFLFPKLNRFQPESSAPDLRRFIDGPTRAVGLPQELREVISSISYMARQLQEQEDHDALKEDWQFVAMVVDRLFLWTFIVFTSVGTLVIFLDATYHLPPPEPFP
Nicotinic acetylcholine receptor alpha1/beta1/epsilon/delta, sequence (P02716 whole entry): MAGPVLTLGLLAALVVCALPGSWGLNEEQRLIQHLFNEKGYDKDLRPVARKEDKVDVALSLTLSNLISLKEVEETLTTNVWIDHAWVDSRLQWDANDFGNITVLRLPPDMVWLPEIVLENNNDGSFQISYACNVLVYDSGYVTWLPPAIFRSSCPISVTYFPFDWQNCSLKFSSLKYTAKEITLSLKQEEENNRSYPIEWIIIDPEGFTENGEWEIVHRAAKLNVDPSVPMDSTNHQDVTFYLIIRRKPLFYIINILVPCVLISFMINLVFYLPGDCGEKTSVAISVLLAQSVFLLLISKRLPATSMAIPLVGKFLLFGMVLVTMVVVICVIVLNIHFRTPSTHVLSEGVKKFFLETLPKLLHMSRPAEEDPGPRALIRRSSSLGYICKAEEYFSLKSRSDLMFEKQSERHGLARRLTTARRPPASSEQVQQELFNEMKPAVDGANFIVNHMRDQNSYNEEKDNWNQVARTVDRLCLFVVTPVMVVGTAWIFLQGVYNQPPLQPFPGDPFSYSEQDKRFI
Nicotinic acetylcholine receptor alpha1/beta1/epsilon/delta, sequence (P20782 whole entry): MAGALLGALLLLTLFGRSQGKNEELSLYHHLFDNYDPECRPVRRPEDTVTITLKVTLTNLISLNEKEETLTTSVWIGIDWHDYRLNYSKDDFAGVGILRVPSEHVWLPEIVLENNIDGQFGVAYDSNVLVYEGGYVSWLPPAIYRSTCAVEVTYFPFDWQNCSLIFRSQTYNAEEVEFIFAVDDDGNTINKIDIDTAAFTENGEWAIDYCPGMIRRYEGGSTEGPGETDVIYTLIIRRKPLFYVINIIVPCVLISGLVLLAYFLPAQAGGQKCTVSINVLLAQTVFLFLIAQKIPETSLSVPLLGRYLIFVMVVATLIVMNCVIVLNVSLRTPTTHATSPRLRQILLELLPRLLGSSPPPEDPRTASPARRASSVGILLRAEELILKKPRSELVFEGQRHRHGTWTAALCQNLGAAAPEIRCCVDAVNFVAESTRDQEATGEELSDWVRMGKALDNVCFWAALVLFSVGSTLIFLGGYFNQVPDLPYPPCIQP

[12] = biological target: Neuronal acetylcholine receptor; alpha2/beta2 (Rattus norvegicus) (UniProt P12389+P12390); assay: Inhibition of rat alpha2/beta2 nAChR expressed in Stage V-VI Xenopus laevis Oocytes assessed as inhibition of acetylcholine-induced current at 10 uM in presence of acetylcholine by electrophysiological recording relative to control; type: cell-based; conditions: Oocyte
[13] = biological target: T2, Neuronal acetylcholine receptor; alpha3/beta4 (Rattus norvegicus); assay: Inhibition of rat alpha3/beta4 nAChR expressed in Stage V-VI Xenopus laevis Oocytes assessed as inhibition of acetylcholine-induced current at 10 uM in presence of acetylcholine by electrophysiological recording relative to control; type: cell-based; conditions: Oocyte
[14] = biological target: Neuronal acetylcholine receptor subunit alpha-7 (Rattus norvegicus) (UniProt Q05941); assay: Inhibition of rat alpha7 nAChR expressed in Stage V-VI Xenopus laevis Oocytes assessed as inhibition of acetylcholine-induced current at 10 uM in presence of acetylcholine by electrophysiological recording relative to control; type: cell-based; conditions: Oocyte
Neuronal acetylcholine receptor subunit alpha-7 (Rattus norvegicus), sequence (Q05941 whole entry): as the sequence (Q05941 whole entry) above

[15] = biological target: T1, Nicotinic acetylcholine receptor alpha6/alpha3/beta2/beta3 (Rattus norvegicus); assay: Inhibition of rat alpha6/alpha3beta2beta3 nAChR expressed in Stage V-VI Xenopus laevis Oocytes assessed as inhibition of acetylcholine-induced current at 10 uM in presence of acetylcholine by electrophysiological recording relative to control; type: cell-based; conditions: Oocyte
Rattus norvegicus [16] = organism: Rattus norvegicus; assay: Inhibition of rat alpha6/alpha3 E195A mutant beta4 nAChR expressed in Stage V-VI Xenopus laevis Oocytes assessed as acetylcholine-induced current response at 1 uM in presence of 100 uM acetylcholine by electrophysiological recording relative to control; type: cell-based
Oocyte [17] = assay: Inhibition of rat alpha6/alpha3 D152A mutant beta4 nAChR expressed in Stage V-VI Xenopus laevis Oocytes assessed as acetylcholine-induced current response at 100 nM in presence of 100 uM acetylcholine by electrophysiological recording relative to control; type: cell-based; design: scale not given: the % may be the effect or the level left
Oocyte [18] = assay: Inhibition of rat alpha6/alpha3 E195A mutant beta4 nAChR expressed in Stage V-VI Xenopus laevis Oocytes assessed as acetylcholine-induced current response at 100 nM in presence of 100 uM acetylcholine by electrophysiological recording relative to control; type: cell-based
Oocyte [19] = assay: Inhibition of rat alpha6/alpha3beta4 K57T mutant nAChR expressed in Stage V-VI Xenopus laevis Oocytes assessed as acetylcholine-induced current response at 1 uM in presence of 100 uM acetylcholine by electrophysiological recording relative to control; type: cell-based
Oocyte [20] = assay: Inhibition of rat alpha6/alpha3beta4 K57T mutant nAChR expressed in Stage V-VI Xenopus laevis Oocytes assessed as acetylcholine-induced current response at 100 uM in presence of 100 uM acetylcholine by electrophysiological recording relative to control; type: cell-based
Oocyte [21] = assay: as §1, with “current by measuring recovery time at 10 uM preincubated with compound for 5 mins followed by washout” for “current”; type: cell-based
[22] = Inhibition of rat alpha6/alpha3beta4 D161A mutant nAChR expressed in Stage V-VI Xenopus laevis Oocytes assessed as inhibition of acetylcholine-induced current in presence of acetylcholine by electrophysiological recording; type: cell-based; conditions: Oocyte
Rattus norvegicus [23] = organism: Rattus norvegicus; assay: Selectivity index, ratio of IC50 for rat alpha6/alpha3 E195A mutant beta4 nAChR expressed in Stage V-VI Xenopus laevis oocytes to IC50 for rat alpha6/alpha3beta4 nAChR expressed in Stage V-VI Xenopus laevis Oocytes by electrophysiological recording; type: cell-based
Rattus norvegicus [24] = organism: Rattus norvegicus; assay: Selectivity index, ratio of IC50 for rat alpha6/alpha3beta4 K57T mutant nAChR expressed in Stage V-VI Xenopus laevis oocytes to IC50 for rat alpha6/alpha3beta4 nAChR expressed in Stage V-VI Xenopus laevis Oocytes by electrophysiological recording; type: cell-based

## CC(C)[C@H](NC(=O)[C@@H]1CCCN1C(=O)[C@H](CC(N)=O)NC(=O)[C@H](C)NC(=O)[C@H](CS)NC(=O)[C@H](CS)NC(=O)[C@@H](N)CCCNC(=N)N)C(=O)N[C@@H](CS)C(=O)N[C@@H](CC(N)=O)C(=O)NCC(=O)N[C@@H](CCCCN)C(=O)N[C@@H](Cc1cnc[nH]1)C(=O)N[C@@H](CS)C(N)=O (H-RCCANPVCNGKHC-NH2)
[1]
  IC50: 0.47 µM
[2]
  inhibition: Active
[3]
  inhibition: inactive
[4]
  inhibition: inactive
[5]
  IC50: > 10 µM
[6]
  IC50: > 10 µM
[7]
  IC50: > 10 µM
[8]
  IC50: > 10 µM
[9]
  IC50: > 10 µM
[10]
  IC50: 0.019 µM
[11]
  IC50: > 10 µM
[12]
  inhibition: < 50%
[13]
  inhibition: < 50%
[14]
  inhibition: < 50%
[15]
  inhibition: < 50%
Rattus norvegicus [16]
  inhibition: 49.3%
Oocyte [17]
  Activity: 22.6%
Oocyte [18]
  inhibition: 9.11%
Oocyte [19]
  inhibition: 92.7%
Oocyte [20]
  inhibition: 43.2%
Oocyte [21]
  TIME: 0.0667 h
[22]
  IC50: 0.063 µM
Rattus norvegicus [23]
  Ratio IC50: 50.5
Rattus norvegicus [24]
  Ratio IC50: 7
